Source: patent publication US9822368B2, “Modulators of intracellular chloride concentration for treating down syndrome” (Fondazione Istituto Italiano di Tecnologia, priority 2013, dated 2017)
“Also recorded” adds a separate entry of the source.

How the values were obtained:
[1] = system: children with Down syndrome; details: even at doses associated with adverse effects; cited from earlier work
[2] = system: hippocampal CA3 pyramidal neurons; test: Whole-cell voltage clamp recordings of spontaneous excitatory postsynaptic currents (sEPSCs) in acute brain slices; assay type: cell-based, Ts65Dn mice; details: acute bumetanide application, P15 Ts65Dn slices, -70 mV
Text: FIG. 1 represents the effect of acute bumetanide on the spontaneous activity in Ts65Dn mice at P15 compared to control values. Whole-cell voltage clamp recordings of spontaneous excitatory postsynaptic currents (sEPSCs) at −70 mV from individual hippocampal CA3 pyramidal neurons in acute […] brain slices from P15 Ts65Dn. (A) Representative traces of sEPSCs recorded from Ts65Dn mice in control and in the presence of bumetanide. (B) Average values of frequency of sEPSCs recorded in control mice (n=9), in Ts65Dn mice (n=9) **p<0.006 (two-tails two-samples t-test) and with bumetanide application (n=9), ***p<0.001 (two-tails paired t-test).

CA1 pyramidal neurons = test: Cell-attached recording of spontaneous spiking activity in acute hippocampal slices; assay type: cell-based, Ts65Dn mice; details: Ts65Dn neurons
[3] = system: CA1 hippocampal pyramidal neurons; test: Gramicidin perforated patch-clamp of GABA currents (reversal potential EC1) in hippocampal slices; assay type: cell-based, Ts65Dn and WT mice; details: for EC1 values: 20 min after bath application of bumetanide (10 μM)
Text: The vertical dotted lines indicate the value of the reversal potential on the x axis. Insets, sample traces of GABA-induced currents at different holding potentials. Scale bars: vertical, 50 pA; horizontal, 50 ms. […] Average resting potentials (dotted lines) were not different in Ts65Dn and WT neurons.

hippocampal CA3CA1 LTP = test: Hippocampal CA3-CA1 LTP (fEPSP slope after TBS) in hippocampal slices; assay type: cell-based, Ts65Dn mice; details: bath application of bumetanide (10 μM), Ts65Dn slices, last 5 min of recordings, 60 min after TBS
Description: FIG. 4 represents the effect of bumetanide bath application on hippocampal CA3CA1 LTP in Ts65Dn mice. […] Numbers in parentheses: number of animals utilized. Insets: Average of 10 fEPSP traces recorded for each experimental group before (continuous line) and 60 min after TBS (dashed line). Stimulus artefacts have been deleted from traces for clarity. Scale bars: vertical, 1 mV; horizontal, 10 ms.

Ts65Dn mice [4] = test: Contextual fear conditioning test; assay type: in vivo; details: for associative memory (contextual fear conditioning): Ts65Dn mice
Text: (§1) FIG. 5 represents the effect of bumetanide systemic treatment on cognitive functions in behavioral tasks in Ts65Dn mice. […] (B) Top, schematic representation of the contextual fear conditioning test. […] (C) Top, schematic representation of the object location test. […] (D) Top, schematic representation of the novel object recognition task. […] For all panels, histograms represent average±SEM, whereas circles indicate data from single animals.

Ts65Dn mice [5] = test: Object location test; assay type: in vivo
Text: as §1

Ts65Dn mice [6] = test: Novel object recognition task; assay type: in vivo; details: for object novelty discrimination (novel object recognition task): Ts65Dn mice
Text: as §1

[7] = summary statement, duration not stated

For `NC(=O)CN1CCCC1=O` [piracetam], the “cognitive and behavioral measures” value [1] is listed as “neither cognitive nor behavioral measures demonstrated improvement”.

With `CCCCNc1cc(C(=O)O)cc(S(N)(=O)=O)c1Oc1ccccc1` [bumetanide] the “ongoing excitatory glutamatergic activity (frequency of sEPSCs)” value [2] was “reduces elevated glutamatergic activity”, the “spike frequency increase induced by GABA” value (CA1 pyramidal neurons; co-treatment GABA and bumetanide (10 μM)) was “reverted this effect” and the EC1 values ([3]; Ts65Dn cells) was “rescued the depolarized EC1”. The EC1 values ([3]; WT mice) was “unaltered”, the “polarity of the actions of GABA” value ([3]; Ts65Dn mice, summary statement) was “restores LTP, hyperpolarizing GABA actions” and the “LTP (increase in the slope of fEPSP)” value (hippocampal CA3CA1 LTP) was “restores LTP; also recorded: rescued this deficit”. The “associative memory (contextual fear conditioning)” value (Ts65Dn mice [4]; bumetanide systemic treatment for 1 week (1W)) was “rescued memory deficit”, the “associative memory (contextual fear conditioning)” value (Ts65Dn mice [4]; bumetanide systemic treatment for 4 weeks (4W)) was “rescued memory deficit” and the memory tests (Ts65Dn mice [4]; [7]) was “rescues the behavioral deficient novel object recognition and memory tests”. For the same molecule, the “spatial memory (object location test)” value (Ts65Dn mice [5]; after 1 week of treatment) was “rescued spatial memory deficits”, the “spatial memory (object location test)” value (Ts65Dn mice [5]; after 4 weeks of treatment) was “rescued spatial memory deficits” and the “novel object recognition test” value (Ts65Dn mice [6]; [7]) was “rescues the behavioral deficient novel object recognition”. For the same molecule, the “object novelty discrimination (novel object recognition task)” value (Ts65Dn mice [6]; treatment for 1 week) was “restored object novelty discrimination” and the “object novelty discrimination (novel object recognition task)” value (Ts65Dn mice [6]; treatment for 4 weeks) was “restored object novelty discrimination”.

With `NCCCC(=O)O` [GABA] the spike frequency (CA1 pyramidal neurons; bath application of GABA (10 μM), 10-12 weeks of age) was “increased spike frequency”.
